Results from patent publication US20220227745A1, “Compounds For Modulating FXR” (NANJING RUIJIE PHARMA TECH CO., LTD., priority 2019, published 2022).

Biological target: T1, FXR LBD, GST (Homo sapiens, UniProt Q96RI1)
T1 construct: FXR LBD, GST; purchased Invitrogen PV4834
T1 sequence (Q96RI1 262-486 limits assumed): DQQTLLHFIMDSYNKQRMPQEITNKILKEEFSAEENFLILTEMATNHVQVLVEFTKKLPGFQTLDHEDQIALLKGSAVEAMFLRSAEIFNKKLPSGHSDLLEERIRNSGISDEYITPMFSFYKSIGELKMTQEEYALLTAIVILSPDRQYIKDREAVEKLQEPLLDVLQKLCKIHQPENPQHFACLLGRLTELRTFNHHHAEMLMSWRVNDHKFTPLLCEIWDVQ
Experiment: FXR Binding Assay (TR-FRET, Fluorescein-SRC2-2 coactivator peptide)
Conditions: for Emax / Pct Effect (Emax %): % Activity relative to positive control; for Emax: read-out: Pct Effect (Emax %); for EC50: TR-FRET FXR LBD coactivator recruitment
Method: The interaction between the present compounds and FXR are evaluated by Time-Resolved Fluorescence Resonance Energy Transfer (TR-FRET) competition assay. FRET describes a radiation-free energy transfer between two chromophores: a donor fluorophore in its excited state can transfer energy to an acceptor fluorophore in close proximity (typically <10 nm). In contrast to standard FRET, TR-FRET unites time-resolved fluorescence (TRF) and the FRET principle, TRF use a long-lifetime lanthanide chelate as the donor species, while lanthanide chelates are unique in that their excited-state lifetime can be on the order of a millisecond or longer. Suitable neighbors for FRET are known in the art and can be obtained.
The assay was performed in following steps: first, prepared a) 1 mM compounds (100×) in DMSO; b) reaction buffer containing 1× buffer G with 10 mM DTT; c) 4×FXR LBD (20 nM) in 1× chilled buffer G. Second, performed 3-fold serial dilution of 1 mM test compounds using DMSO from 1 mM, 10 doses in a 96-well plate (249944, Nunc). Then, used complete buffer G to dilute each 100× compounds serial dilution to 2×. Third, added 10 μl 2× compound serial dilution into 384-well plate (3677, Corning). Then, added 5 μl FXR LBD into the assay plate. Prepared a solution containing 2 μM fluorescein-SRC2-2 (4×) and 20 nM Tb anti-GST antibody (4×) in buffer G at room temperature and started the reaction by adding 5 μl the above solution into each well of the assay plate. Centrifuged the assay plates at 1000 g for 1 min and then incubated at room temperature for lhr protected from light. Finally, the plate was read at wavelengths of 520 nm and 495 nm on Envision 2104 plate reader (PerkinElmer).
A ratio (Ratio520 nm/495 nm−Ratiobackground) was calculated for each well. The activity ratio was calculated as follow: […]
Ratiopositive: The average ratio for the positive control across the plate.
Ratiovehicle: The average ratio for negative controls across the plate.
EC50 was calculated by fitting % Activity values and log of compound concentrations to nonlinear regression (dose response-variable slope) with GraphPad 5.0.
X: log of compound concentration.

SMILES	Emax	EC50	Pct Effect (Emax %)
Cn1cc(C(=O)O)c2ccc(N3CCN(CCc4c(-c5ccccc5Cl)noc4C4CC4)CC3)cc21 [Example I9, 6-(4-(2-(3-(2-chlorophenyl)-5-cyclopropylisoxazol-4-yl)ethyl)piperazin-1-yl)-1-methyl-1H-indole-3-carboxylic Acid]	206%	1220 nM	
Cn1cc(C(=O)O)c2ccc(N3CCN(CCc4c(-c5c(F)cccc5F)noc4C4CC4)CC3)cc21 [Example I11, 6-(4-(2-(5-cyclopropyl-3-(2,6-difluorophenyl)isoxazol-4-yl)ethyl)piperazin-1-yl)-1-methyl-1H-indole-3-carboxylic Acid]		1640 nM	
CC1CN(CCc2c(-c3c(Cl)cccc3Cl)noc2C2CC2)CCN1c1ccc(CC(=O)O)cc1 (centres unmarked) [Example I13, 2-(4-(4-(2-(5-cyclopropyl-3-(2,6-dichlorophenyl)isoxazol-4-yl)ethyl)-2-methylpiperazin-1-yl)phenyl)acetic Acid]	34.9%	1530 nM	
Cn1cc(C(=O)O)c2ccc(N3CCN(CCc4c(-c5ccc(Cl)cc5Cl)noc4C4CC4)CC3)cc21 [Example I16, 6-(4-(2-(5-cyclopropyl-3-(2,4-dichlorophenyl)isoxazol-4-yl)ethyl)piperazin-1-yl)-1-methyl-1H-indole-3-carboxylic Acid]		> 10000 nM	
Cn1cc(C(=O)O)c2ccc(N3CCN(CCc4c(-c5ccccc5F)noc4C4CC4)CC3)cc21 [Example I19, 6-(4-(2-(5-cyclopropyl-3-(2-fluorophenyl)isoxazol-4-yl)ethyl)piperazin-1-yl)-1-methyl-1H-indole-3-carboxylic Acid]	104%	4360 nM	
CC(Cc1c(-c2c(Cl)cccc2Cl)noc1C1CC1)N1CCN(c2ccc3c(C(=O)O)cn(C)c3c2)CC1 (centres unmarked) [Example I23, 6-(4-(1-(5-cyclopropyl-3-(2,6-dichlorophenyl)isoxazol-4-yl)propan-2-yl)piperazin-1-yl)-1-methyl-1H-indole-3-carboxylic Acid]	35.7%	1370 nM	
Cn1cc(C(=O)O)c2ccc(N3C[C@H]4C[C@@H]3CN4CCc3c(-c4c(Cl)cccc4Cl)noc3C3CC3)cc21 [Example I28, 6-((1R,4R)-5-(2-(5-cyclopropyl-3-(2,6-dichlorophenyl)isoxazol-4-yl)ethyl)-2,5-diazabicyclo[2.2.1]heptan-2-yl)-1-methyl-1H-indole-3-carboxylic Acid]	132%	1340 nM	
Cn1cc(C(=O)O)c2ccc(N3CC4CC3CN4CCc3c(-c4c(Cl)cccc4Cl)noc3C3CC3)cc21 (centres unmarked) [Example I29, 6-(5-(2-(5-cyclopropyl-3-(2,6-dichlorophenyl)isoxazol-4-yl)ethyl)-2,5-diazabicyclo[2.2.1]heptan-2-yl)-1-methyl-1H-indole-3-carboxylic Acid]		3810 nM	68.08%
O=C(O)c1cc(F)c2nc(N3C4CCC3CN(CCc3c(-c5c(Cl)cccc5Cl)noc3C3CC3)C4)sc2c1 [Example I31, 2-(3-(2-(5-cyclopropyl-3-(2,6-dichlorophenyl)isoxazol-4-yl)ethyl)-3,8-diazabicyclo[3.2.1]octan-8-yl)-4-fluorobenzo[d]thiazole-6-carboxylic Acid]	45.1%	41 nM	
O=C(O)c1cc(F)c2nc(N3C4CCC3CN(CCc3c(-c5ccccc5OC(F)(F)F)noc3C3CC3)C4)sc2c1 [Example I32, 2-(3-(2-(5-cyclopropyl-3-(2-(trifluoromethoxy)phenyl)isoxazol-4-yl)ethyl)-3,8-diazabicyclo[3.2.1]octan-8-yl)-4-fluorobenzo[d]thiazole-6-carboxylic Acid]	47.7%	129 nM	
O=C(O)c1ccc2nc(N3C4CCC3CN(CCc3c(-c5c(Cl)cccc5Cl)noc3C3CC3)C4)sc2c1 [Example I33, 2-(3-(2-(5-cyclopropyl-3-(2,6-dichlorophenyl)isoxazol-4-yl)ethyl)-3,8-diazabicyclo[3.2.1]octan-8-yl)benzo[d]thiazole-6-carboxylic Acid]	43.3%	97 nM	
O=C(O)c1ccc2nc(N3C4CCC3CN(CCc3c(-c5ccccc5OC(F)(F)F)noc3C3CC3)C4)sc2c1 [Example I34, 2-(3-(2-(5-cyclopropyl-3-(2-(trifluoromethoxy)phenyl)isoxazol-4-yl)ethyl)-3,8-diazabicyclo[3.2.1]octan-8-yl)benzo[d]thiazole-6-carboxylic Acid]	41.5%	236 nM	
C[C@H]1CN(CCc2c(-c3c(Cl)cccc3Cl)noc2C2CC2)CCN1c1ccc2c(C(=O)O)cn(C)c2c1 [Example I39, (S)-6-(4-(2-(5-cyclopropyl-3-(2,6-dichlorophenyl)isoxazol-4-yl)ethyl)-2-methylpiperazin-1-yl)-1-methyl-1H-indole-3-carboxylic Acid]	129%	150 nM	
Cn1cc(C(=O)O)c2ccc(N3CC4CCC(C3)N4CCc3c(-c4c(Cl)cccc4Cl)noc3C3CC3)cc21 [Example I41, 6-(8-(2-(5-cyclopropyl-3-(2,6-dichlorophenyl)isoxazol-4-yl)ethyl)-3,8-diazabicyclo[3.2.1]octan-3-yl)-1-methyl-1H-indole-3-carboxylic Acid]	158%	200 nM	
C[C@@H]1CN(CCc2c(-c3c(Cl)cccc3Cl)noc2C2CC2)C[C@H](C)N1c1ccc2c(C(=O)O)cn(C)c2c1 [Example I43, 6-((2S,6R)-4-(2-(5-cyclopropyl-3-(2,6-dichlorophenyl)isoxazol-4-yl)ethyl)-2,6-dimethylpiperazin-1-yl)-1-methyl-1H-indole-3-carboxylic Acid]	110%	1400 nM	
C[C@@H]1CN(CCc2c(-c3c(Cl)cccc3Cl)noc2C2CC2)C[C@@H](C)N1c1ccc2c(C(=O)O)cn(C)c2c1 [Example I44, 6-((2R,6R)-4-(2-(5-cyclopropyl-3-(2,6-dichlorophenyl)isoxazol-4-yl)ethyl)-2,6-dimethylpiperazin-1-yl)-1-methyl-1H-indole-3-carboxylic Acid]	73.5%	401 nM	
Cn1cc(C(=O)O)c2c(F)cc(N3CCN(CCc4c(-c5c(Cl)cccc5Cl)noc4C4CC4)CC3)cc21 [Example I46, 6-(4-(2-(5-cyclopropyl-3-(2,6-dichlorophenyl)isoxazol-4-yl)ethyl)piperazin-1-yl)-4-fluoro-1-methyl-1H-indole-3-carboxylic Acid]	168%	149 nM	
Cn1cc(C(=O)O)c2ccc(N3CC4CC3CN4CCc3c(-c4c(Cl)cccc4Cl)noc3C3CC3)cc21 (centres unmarked) [Example I48, 6-(5-(2-(5-cyclopropyl-3-(2,6-dichlorophenyl)isoxazol-4-yl)ethyl)-2,5-diazabicyclo[2.2.1]heptan-2-yl)-1-methyl-1H-indole-3-carboxylic Acid]		1720 nM	124.90%
Cn1cc(C(=O)O)c2ccc(N3CC4CC(C3)N4CCc3c(-c4c(Cl)cccc4Cl)noc3C3CC3)cc21 [Example I49, 6-(6-(2-(5-cyclopropyl-3-(2,6-dichlorophenyl)isoxazol-4-yl)ethyl)-3,6-diazabicyclo[3.1.1]heptan-3-yl)-1-methyl-1H-indole-3-carboxylic Acid]		> 10000 nM	
CC1CN(CCc2c(-c3c(Cl)cccc3Cl)noc2C2CC2)CCN1c1ccc2nc(C(=O)O)ccc2c1 (centres unmarked) [Example I51, 6-(4-(2-(5-cyclopropyl-3-(2,6-dichlorophenyl)isoxazol-4-yl)ethyl)-2-methylpiperazin-1-yl)quinoline-2-carboxylic Acid]	96.5%	74 nM	
CC1CN(c2ccc3nc(C(=O)O)ccc3c2)CCN1CCc1c(-c2c(Cl)cccc2Cl)noc1C1CC1 (centres unmarked) [Example I52, 6-(4-(2-(5-cyclopropyl-3-(2,6-dichlorophenyl)isoxazol-4-yl)ethyl)-3-methylpiperazin-1-yl)quinoline-2-carboxylic Acid]	121%	209 nM	
COC(=O)c1ccc2cc(N3CCN(CCc4c(-c5c(Cl)cccc5Cl)noc4C4CC4)C(C)C3)ccc2n1 (centres unmarked) [Example I53, methyl 6-(4-(2-(5-cyclopropyl-3-(2,6-dichlorophenyl)isoxazol-4-yl)ethyl)-3-methylpiperazin-1-yl)quinoline-2-carboxylate]	68.4%	436 nM	
